From article PMC11462456 (Chemical Science, 2024)

How the values were obtained:
VHL = biological target: T1, VHL (Homo sapiens, UniProt P40337); assay: E3 ligase homo-degradation by western blot, VHL; format: cell-based; details: HEK293 cells, 4 h, 1 μM and 10 μM
T1 construct: western blot analysis of the levels of CRBN and VHL E3 ligase in cell lysate; endogenous in cells; host or cells: HEK293 (ATCC)
Description: (§1) 4. Biological experiments
(§2) Primary antibodies used for western blotting included anti-human BRD2(1:2000, rabbit monoclonal, Abcam, ab139690), anti-human BRD3 (1:1000, rabbit monoclonal, Abcam, ab264420), anti-human BRD4 (E2A7X) (1:1000, rabbit monoclonal, Cell Signaling Technology, #13440), anti-human VHL (1:1000, rabbit polyclonal, Cell Signaling Technology, #68547), anti-human CRBN (D8H3S) (1:1000, rabbit polyclonal, Cell Signaling Technology, #71810), anti-human alpha Tubulin, clone B-5-1-2 (1:5000, mouse monoclonal, Merck Life Science, # 32-2500).Secondary antibodies used for western blot included: anti-mouse horseradish peroxidase-linked antibody (1:3000, sheep, GE Healthcare Life Sciences, #NA931V), and anti-rabbit horseradish peroxidase-linked antibody (1:8000, donkey, GE Healthcare Life Sciences, #NA934V). Reagent for degradation assay and compounds […]
dr. Serge Van Calenbergh, Ghent University). […]
(§3) General method of Western blot: Lysates were sonicated and centrifuged at 4 °C at 20000 g for 15 min, and the supernatants were transferred to new tubes. Protein concentration of cell lysates was measured using the DC Protein Assay kit (BIO-RAD) following manufacturer's instructions. […]
(§4) Figure S5 Homo-degradation effect in Dual-ligand PROTACs. […] Subsequently, cell lysates were prepared and the protein levels of CRBN or VHL E3 ligase were assessed by Western blotting. […]

BRD4 = biological target: T2, BRD4 (Homo sapiens, UniProt O60885); assay: Western blot degradation of BRD4 in HEK293 cells; format: cell-based; details: HEK293 cells, 4 h, 0.1 μM to 1 nM, Fig. S2
T2 construct: BRD2, BRD3 and BRD4 protein levels were measured by western blot; endogenous in cells; host or cells: HEK293 (ATCC)
Protocol: HEK293, A549, SKOV-3, HCT116 cells (ATCC)were grown in DMEM (Gibco),and all cells were supplemented with 10% (v/v) fetal bovine serum (FBS) (Sigma), 100 mg/mL penicillin/streptomycin solution (Thermo Fisher Scientific) and maintained at 37 °C and 5% CO2 in a humidified atmosphere. All cells used were tested monthly using the Mycoalert
General method of Western blot: Lysates were sonicated and centrifuged at 4 °C at 20000 g for 15 min, and the supernatants were transferred to new tubes. Protein concentration of cell lysates was measured using the DC Protein Assay kit (BIO-RAD) following manufacturer's instructions. Cell lysates were mixed with reducing sample buffer (0.5 M Tris-HCl (pH 6.8),
at 95°C. Proteins were separated by SDS–PAGE (SDS polyacrylamide gel electrophoresis) with 25–40 µg of total protein per well, transferred to 0.2-μm-pore nitrocellulose membranes (BIO-RAD), then blocked in 5%(w/v) milk in PBS and 0.5% Tween-20, and incubated overnight at 4°C with primary antibodies described in section 4.1. Secondary antibodies were added for 1h at room temperature after 3 times washing with blocking buffer. After 6 times of washing
with PBS (Thermo Fisher Scientific) and 0.5% Tween-20, Blots were detected using the Clarity Western ECL Substrate (BIO-RAD) and visualized on iBright CL 750 (Thermo Fisher Scientific) and images were analyzed using iBright Firmware 1.7.0.
4.3.1 Evaluation of the degradation capacity of PROTACs […]

[1] = system: HEK293, A549, HCT116 and SKOV-3; assay: CellTiter-Glo metabolic activity, cell line panel; format: cell-based; details: 48 h
Protocol: (§5) 4.4 Cell viability assay on 2D cells cultures
(§6) HEK293, HCT116, A549,andSKOV-3 cells were seeded in 96-well tissue culture plates at a density of 2000-3000 cells per well in 100 µl of growth medium and incubated overnight at 37 °C with 5% CO2. The following day, the cells were treated with various concentrations of compounds or 0.05% DMSO for 48 h. After treatment, add 100 μl of Cell Titer-Glo® 2.0 Reagent (cat. no. G9243, Promega) in each well, then the 96-well plates were put on an orbital shaker for 10 min and then allow the plate to incubate at room temperature for 10-20min to stabilize the luminescent signal. Luminescence readout (Gen5 Data Analysis Software v3.08.01) was performed to record luminescence.
(§7) (1 picture or pasted object on this page, not shown here)

CRBN = biological target: T3, CRBN (Homo sapiens, UniProt Q96SW2); assay: E3 ligase homo-degradation by western blot, CRBN; format: cell-based; details: HEK293 cells, 4 h, 0.1, 1 and 10 μM
T3 construct: western blot analysis of the levels of CRBN and VHL E3 ligase in cell lysate; endogenous in cells; host or cells: HEK293 (ATCC)
T3 sequence (Q96SW2 whole entry): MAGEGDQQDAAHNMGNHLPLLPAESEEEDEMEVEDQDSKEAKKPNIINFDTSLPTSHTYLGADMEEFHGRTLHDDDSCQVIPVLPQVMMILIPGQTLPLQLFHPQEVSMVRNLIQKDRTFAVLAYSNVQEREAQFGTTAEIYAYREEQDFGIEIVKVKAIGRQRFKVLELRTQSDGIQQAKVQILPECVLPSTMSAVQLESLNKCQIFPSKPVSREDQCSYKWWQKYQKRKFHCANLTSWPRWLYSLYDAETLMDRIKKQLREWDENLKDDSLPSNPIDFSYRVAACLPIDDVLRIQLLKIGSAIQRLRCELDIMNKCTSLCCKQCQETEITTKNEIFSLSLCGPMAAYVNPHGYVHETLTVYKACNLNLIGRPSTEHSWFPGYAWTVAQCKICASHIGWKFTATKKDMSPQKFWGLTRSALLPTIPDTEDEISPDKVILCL
Description: as §1, §2
dr. Serge Van Calenbergh, Ghent University).
4.2 Cell lines and culture
HEK293, A549, SKOV-3, HCT116 cells (ATCC)were grown in DMEM (Gibco),and all cells were supplemented with 10% (v/v) fetal bovine serum (FBS) (Sigma), […] penicillin/streptomycin solution (Thermo Fisher Scientific) and maintained at 37 °C and 5% CO2 in a humidified atmosphere. All cells used were tested monthly using the Mycoalert Mycoplasma Detection Kit (cat. no. LT07-318, Lonza) to exclude mycoplasma contamination.
4.3 Degradation assays by Western blot
as §3, with “instructions. Cell lysates were mixed with reducing sample buffer (0.5 M Tris-HCl (pH 6.8), 43% glycerol, 9.2% SDS, 5% 2-mercaptoethanol, 5% bromophenol blue) and boiled for 5 min at 95°C.” for “instructions.”
as §4

A549 cells = assay: CellTiter-Glo 2D metabolic activity assay, A549; format: cell-based; details: Homo sapiens, 2D culture, 48 h
Protocol: as §5, §6, §7

HCT116 cells = assay: CellTiter-Glo 2D metabolic activity assay, HCT116; format: cell-based; details: Homo sapiens, HCT-116, 2D culture, 48 h
Protocol: as §5, §6, §7

HEK293 cells = assay: CellTiter-Glo 2D metabolic activity assay, HEK293; format: cell-based; details: Homo sapiens, 2D culture, 48 h
Protocol: Figure S5 Homo-degradation effect in Dual-ligand PROTACs. HEK293 cells were treated with all synthesized PROTACs or 2V-alkyne/2P-alkyne for 4 hours. Subsequently, cell lysates were prepared and the protein levels of CRBN or VHL E3 ligase were assessed by Western blotting. (A) Representative image of CRBN or VHL E3 ligase homo-degradation was screened for all PROTACs and commercial single-ligand PROTACs at a concentration of 0.1, 1 and 10 µM, respectively (equivalent volume of DMSO as control group). (B) Representative image of CRBN or VHL E3 ligase homo-degradation was screened for 2P-alkyne or 2V-alkyne at a concentration of 0.1, 1 and 10 µM, respectively (equivalent volume of DMSO as control group). Experiments were performed as three independent replicates.
as §5
HEK293, HCT116, A549,andSKOV-3 cells were seeded in 96-well tissue culture plates at a density of 2000-3000 cells per well in 100 µl of growth medium and incubated overnight at 37 °C with 5% CO2. The following day, the cells were treated with various concentrations of compounds or 0.05% DMSO for 48 h. […] Luminescence readout (Gen5 Data Analysis Software v3.08.01) was performed to record luminescence. […]

A549 spheroids = assay: CellTiter-Glo 3D assay on spheroids; format: cell-based; details: Homo sapiens, 72 h, read-out: EC50, spheroid metabolic activity
Protocol: 4.5 Cell viability assay on 3D cell cultures
The single cell suspension containing 2.5 ×10^4 cells/ml of A549 or 2 ×10^4 cells/ml of HCT116 were seeded into the U-shaped, 384-well ULA plates (cat. no. MS-9384UZ, S-bio), each well containing 80 μl single cell suspension. The 384-well ULA plates were sealed with Breath-Easy semipermeable tape (cat. no. BEM-1, Diversified Biotech) to prevent evaporation. The spheroids were put into incubator and then cultured at 37 °C and 10% CO2. After 48h of spheroids formation, the spheroids were treated with various concentrations of compounds or 0.05% DMSO. After 72h treatment, each spheroid in the culture medium was pipetted into white micro-96-well plates (cat. no. 236108, ThermoFisher) and an equal volume of Cell Titer-Glo 3D (cat. no. G9683, Promega) reagent was added. Luminescence readouts were the same as described above for 2D culture.

[2] = Parallel artificial membrane permeability assay (PAMPA); format: in vitro ADME; details: 10 uM, pH 7.4, four hours
Protocol: 4.9 Study of membrane permeability of single-ligand and dual-ligand PROTACs Parallel artificial membrane permeability assay (PAMPA) is a non-cell based assay designed to predict passive, transcellular permeability of a test compound through a PVDF membrane filter pretreated with lipid. At a given pH a log Pe (log of effective permeability) can be determined by a UV spectrophotometer. […]
is carried out in the company of Eurofins Panlabs, 6 Research Park Dr. St. Charles, MO 63304, U.S.A. The results are attached as an excel file.
Sample preparation The test compound is prepared from a 10 mM DMSO stock solution and diluted to a single final concentration of 10 uM in donor buffer. The donor solution is placed in contact with the acceptor buffer at a single pH = 7.4 with the membrane in between and the sandwich is incubated for four hours at ambient temperature.
Reference compounds Ketoprofen, propranolol and furosemide. The reference compounds yield log Pe (10-6 cm/s) values that cover the typical range of the assay from high (Propranolol), mid (Ketoprofen) to low (Furosemide) permeability.
Analytical method UV/Vis spectrophotometer
The UV absorption is measured from 250 to 500 nm for both donor and acceptor plate.
Adjustments to the method may be made as necessary to improve detection or UV spectrum.
Data analysis The amount of compound UV absorbance is determined in the donor plate prior to starting the experiment for each compound. The UV absorbance was measured from the (1 picture or pasted object on this page, not shown here) […]
donor and acceptor plate after a four hour incubation time. The log Pe was calculated using […]
4.10 Statistical Analysis.
Data analyses were performed using GraphPad Prism 9 software. The results are presented as the mean ± standard deviation (SD) or standard error of mean (SEM). All statistical analyses were evaluated with one-way analysis of variance (ANOVAs), or unpaired Student’s t-test. The difference was considered statistically significant when P < 0.05.

T1 sequence (P40337 whole entry): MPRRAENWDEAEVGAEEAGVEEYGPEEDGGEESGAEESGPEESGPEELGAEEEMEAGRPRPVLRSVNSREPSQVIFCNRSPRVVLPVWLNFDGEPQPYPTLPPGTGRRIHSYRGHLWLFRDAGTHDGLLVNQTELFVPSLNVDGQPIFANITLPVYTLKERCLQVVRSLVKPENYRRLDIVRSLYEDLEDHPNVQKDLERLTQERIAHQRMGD

Row | Structure (SMILES) | protein degradation potency, controls with similar linker length (BRD4) | metabolic inhibition, comparison [1] | CRBN level (homo-degradation) (CRBN) | other results
1 | Cc1ncsc1-c1ccc(C(C)NC(=O)C2CC(O)CN2C(=O)C(NC(=O)COCCOCCNC(=O)CC(NC(=O)CCc2cn(CCOCCOCCOCCNC(=O)CC3N=C(c4ccc(Cl)cc4)c4c(sc(C)c4C)-n4c(C)nnc43)nn2)C(=O)NCCOCCOCC(=O)NC(C(=O)N2CC(O)CC2C(=O)NC(C)c2ccc(-c3scnc3C)cc2)C(C)(C)C)C(C)(C)C)cc1 (stereo not drawn) [1J2V] |  |  |  | VHL homo-degradation (VHL): did induce homo-degradation of VHL
2 | Cc1sc2c(c1C)C(c1ccc(Cl)cc1)=N[C@@H](CC(=O)NCCOCCOCCNC(=O)C[C@H](NC(=O)COCCOCCOCCOCCn1cc(CNc3cccc4c3C(=O)N(C3CCC(=O)NC3=O)C4=O)nn1)C(=O)NCCOCCOCCNC(=O)C[C@@H]1N=C(c3ccc(Cl)cc3)c3c(sc(C)c3C)-n3c(C)nnc31)c1nnc(C)n1-2 (stereo partly drawn) [2J1P] | could still potently degrade the BRD proteins | higher metabolic inhibition compared to single-ligand PROTACs |  | 
3 | C#CCCC(=O)N[C@@H](CC(=O)NCCOCCOCCNc1cccc2c1C(=O)N(C1CCC(=O)NC1=O)C2=O)C(=O)NCCOCCOCCNc1cccc2c1C(=O)N(C1CCC(=O)NC1=O)C2=O (stereo partly drawn) [2P-alkyne] |  |  | did not induce any degradation of CRBN | 
4 | Cc1sc2c(c1C)C(c1ccc(Cl)cc1)=N[C@@H](CC(=O)NCCOCCOCCOCCn1cc(CCC(=O)N[C@@H](CC(=O)NCCOCCOCCNc3cccc4c3C(=O)N(C3CCC(=O)NC3=O)C4=O)C(=O)NCCOCCOCCNc3cccc4c3C(=O)N(C3CCC(=O)NC3=O)C4=O)nn1)c1nnc(C)n1-2 (stereo partly drawn) [1J2P] |  |  | did not induce any significant decrease of CRBN | 
5 | Cc1sc2c(c1C)C(c1ccc(Cl)cc1)=NC(CC(=O)NCCCCNC(=O)COc1cccc3c1C(=O)N(C1CCC(=O)NC1=O)C3=O)c1nnc(C)n1-2 (stereo not drawn) [dBET1] |  |  |  | EC50 (A549 cells): 2 µM; EC50 (HCT116 cells): > 10 µM; EC50 (HEK293 cells): 0.9 µM; EC50 (A549 spheroids): 7 µM; membrane permeability [2]: very limited membrane permeability
6 | Cc1ncsc1-c1ccc(C(C)NC(=O)C2CC(O)CN2C(=O)C(NC(=O)CCc2cn(CCOCCOCCOCCOCC(=O)NC(CC(=O)NCCOCCOCCNC(=O)CC3N=C(c4ccc(Cl)cc4)c4c(sc(C)c4C)-n4c(C)nnc43)C(=O)NCCOCCOCCNC(=O)CC3N=C(c4ccc(Cl)cc4)c4c(sc(C)c4C)-n4c(C)nnc43)nn2)C(C)(C)C)cc1 (stereo not drawn) [2J1V] | could still potently degrade the BRD proteins | higher metabolic inhibition compared to single-ligand PROTACs |  | 
